Reference: patent US20260234144A1 (TAY THERAPEUTICS LIMITED, priority 2023, published 2026)

Test system: R223X stop codon in the mutated luciferase gene, ADXC8 luciferase reporter cell line
Assay: cells
Format: cell-based
Conditions: ADXC8 cells, 24 hours; for Fold Over Control: maximum fold response relative to 200 μM G418; for pC100%: negative logarithm of the concentration giving the same response as 200 μM G418; for Emax / EC (100% of 200 uM G418 response): 24 h; for Emax: read-out: Fold Over Control, maximum fold response relative to 200 μM G418; for EC (100% of 200 uM G418 response): read-out: pC100%, negative logarithm of the concentration giving the same response as 200 μM G418

| SMILES | Fold Over Control | pC100% | Emax [%] | EC (100% of 200 uM G418 response) [µM] |
| --- | --- | --- | --- | --- |
| CNc1nc(NC2CNCC2C#N)nc2nc(C)cc(C)c12 (single isomer, unassigned) [Example 452] | ## (Fold over Ctrl > 1 ≤ 30) | + (pC100% > 4.0 ≤ 5.0) |  |  |
| CN1CCC(Nc2nc(N)c3ccc(-c4cccc(CO)c4)nc3n2)CC1 [Example 92] |  |  | 100 to 3000 | 10 to 100 |
| CC(=O)c1cnc2nc(NC3CCN(C)CC3)nc(N)c2c1 [Example 125, 1-{4-amino-2-[(1-methylpiperidin-4-yl)amino]pyrido[2,3-d]pyrimidin-6-yl}ethenone] |  |  | 0 to 100 | > 100 |
| Cc1cc(C)c2c(N)nc(N[C@@H]3CCCCNC3)nc2n1 [Example 313] |  |  | 100 to 3000 | 1 to 10 |
| [2H]C([2H])(c1ccc(C#N)cc1)N1CCC(Nc2nc(N)c3c(C)cc(C)nc3n2)CC1 [Example 507, 4-((4-((4-amino-5,7-dimethylpyrido[2,3-d]pyrimidin-2-yl)amino)piperidin-1-yl)methyl-d2)benzonitrile] |  |  | 100 to 3000 | 0.1 to 1 |
| Cc1cc(C)c2c(N)nc(NC3CCN(Cc4ccc(C(F)F)cc4)CC3)nc2n1 [Example 485] |  |  | 100 to 3000 | 1 to 10 |
| Cc1cc(C)c2c(N)nc(NC3CCN(Cc4ccccc4C(F)F)CC3)nc2n1 [Example 493] |  |  | 100 to 3000 | 1 to 10 |
| CNc1cc(N[C@H]2CN(C)C[C@@H]2F)nc2nc3c(c(C)c12)CCC3 [Example 634] |  |  | 100 to 3000 | 0.1 to 1 |
| CNc1nc(N[C@@H]2CCN(C)C2)nc2nc(C)cc(C)c12 [Example 327] |  |  | 100 to 3000 | 1 to 10 |
| Cc1c2ccccc2nc2nc(NC3CCN(C)CC3)nc(N)c12 [Example 10, 5-methyl-N^2-(1-methylpiperidin-4-yl)pyrimido[4,5-b]quinoline-2,4-diamine] |  |  | 100 to 3000 | 1 to 10 |
| CNc1nc(N[C@H]2CN(C)C[C@@H]2OC(=O)C(C)(C)C)nc2nc3c(c(C)c12)CCC3 [Example 681] |  |  | 100 to 3000 | 0.1 to 1 |
| CN(C)Cc1ccccc1-c1ccc2c(N)nc(NC3CCN(C)CC3)nc2n1 [Example 59] |  |  | 0 to 100 | > 100 |
| Cc1cc(C)c2c(NCc3ccccn3)nc(NC3CCN(C)CC3)nc2n1 [Example 317] |  |  | 100 to 3000 | 10 to 100 |
| Cc1cc(C)c2c(N)nc(NC3CC4CC[C@@H](C3)N4C(=O)OC(C)(C)C)nc2n1 (some centres unmarked) [Example 137] |  |  | 100 to 3000 | 10 to 100 |
| CNc1nc(N[C@H]2CNC[C@H]2F)nc2nc(C)c3c(c12)CCC3 [Example 347] |  |  |  | 0.1 to 1 |
| CNc1nc(N[C@@H]2CCNC2)nc2nc(C)c(Cl)c(C)c12 [Example 358] |  |  | 100 to 3000 | 0.1 to 1 |
| CC(=O)Nc1cccc(-c2ccc3c(N)nc(NC4CCN(C)CC4)nc3n2)c1 [Example 64] |  |  | 0 to 100 | > 100 |
| CN1CCC(Nc2nc(N)c3cc(-c4ccn(C)n4)cnc3n2)CC1 [Example 648] |  |  | 0 to 100 | > 100 |
| Cc1cccc(-c2ccc3c(N)nc(NC4CCN(C)CC4)nc3n2)c1 [Example 49, N^2-(1-methylpiperidin-4-yl)-7-(m-tolyl)pyrido[2,3-d]pyrimidine-2,4-diamine] |  |  |  | 1 to 10 |

| SMILES | Fold Over Control | pC100% | Emax [%] | EC (100% of 200 uM G418 response) [µM] |
| --- | --- | --- | --- | --- |
| Cc1nc2nc(NC3CCN(Cc4ccccc4)CC3)nc(N)c2c2c1CCC2 [Example 306] |  |  | 100 to 3000 | 0.1 to 1 |
| Cc1cc(C)c2c(N)nc(NC3CCN(Cc4ccc(F)cc4)CC3)nc2n1 [Example 457] |  |  | 100 to 3000 | 0.1 to 1 |
| CNc1nc(NC2CCN(Cc3ccccc3O)CC2)nc2nc(C)c3c(c12)CCC3 [Example 544] |  |  | 100 to 3000 | 0.1 to 1 |
| CNc1nc(N[C@H]2CN(C)CC[C@@H]2O)nc2nc(C)cc(C)c12 [Example 609] |  |  |  | 1 to 10 |
| CNc1nc(NC2C3CNC2C3)nc2nc(C)cc(C)c12 (single isomer, unassigned) [Example 447] | ## (Fold over Ctrl > 1 ≤ 30) | ++ (pC100% > 5.0 ≤ 6.0) |  |  |
| CN1CCC(Nc2nc(N)c3ccc(N(C)C)nc3n2)CC1 [Example 36, N^7,N^7-dimethyl-N^2-(1-methylpiperidin-4-yl)pyrido[2,3-d]pyrimidine-2,4,7-triamine] |  |  | 100 to 3000 | 10 to 100 |
| Cc1cc(C)c2c(N)nc(NC3COC4(CNC4)C3)nc2n1 (centres unmarked) [Example 210] |  |  | 100 to 3000 | 1 to 10 |
| Cc1c2c(nc3nc(NC4CCNCC4)nc(NCCO)c13)CCC2 [Example 510, 2-((5-methyl-2-(piperidin-4-ylamino)-7,8-dihydro-6H-cyclopenta[5,6]pyrido[2,3-d]pyrimidin-4-yl)amino)ethan-1-ol] |  |  | 100 to 3000 | 0.1 to 1 |
| CNc1nc(N[C@H]2CNCC[C@H]2O)nc2nc(C)cc(C)c12 [Example 606] |  |  |  | 1 to 10 |
| CNc1ccc(-c2ccc3c(N)nc(NC4CCN(C)CC4)nc3n2)cc1 [Example 53] |  |  | 100 to 3000 | 1 to 10 |
| Cc1c2c(nc3nc(NC4CCN(Cc5cnccc5O)CC4)nc(N)c13)CCC2 [Example 663] |  |  | 100 to 3000 | 1 to 10 |
| Cc1cc(C)c2c(N)nc(NCCCN3Cc4ccccc4C3)nc2n1 [Example 194] |  |  | 100 to 3000 | 10 to 100 |
| CNc1cc(N[C@H]2CNC[C@H]2OC)nc2nc3c(c(C)c12)CCC3 [Example 617] |  |  | 100 to 3000 | 1 to 10 |
| COC(C)c1ccnc2nc(NC3CCN(C)CC3)nc(N)c12 (centres unmarked) [Example 252, 5-(1-methoxyethyl)-N^2-(1-methylpiperidin-4-yl)pyrido[2,3-d]pyrimidine-2,4-diamine] |  |  | 0 to 100 | > 100 |
| CNc1nc(N[C@H]2CCCN(C)C2)nc2nc(C)cc(C)c12 [Example 384] |  |  | 100 to 3000 | 1 to 10 |
| Cc1nc2nc(NC3CCN(Cc4ccc(C#N)cc4O)CC3)nc(N)c2c2c1CCC2 [Example 534] |  |  | 100 to 3000 | 0.1 to 1 |
| COCc1cnc2nc(NC3CCN(C)CC3)nc(N)c2c1 [Example 242, 6-(methoxymethyl)-N^2-(1-methylpiperidin-4-yl)pyrido[2,3-d]pyrimidine-2,4-diamine] |  |  | 0 to 100 | > 100 |
| CNc1nc(NC2CNCC2C#N)nc2nc(C)cc(C)c12 (single isomer, unassigned) [Example 451] | # (Fold over Ctrl ≥ 0 ≤ 1) | * (pC100 ≤ 4.5) |  |  |
| CNc1nc(N[C@H]2CNC[C@H]2O)nc2nc3c(c(C)c12)CCC3 [Example 360] |  |  | 100 to 3000 | 10 to 100 |

| SMILES | Fold Over Control | pC100% | Emax [%] | EC (100% of 200 uM G418 response) [µM] |
| --- | --- | --- | --- | --- |
| Cc1cc(C)c2c(N)nc(NCCCNCC(F)(F)F)nc2n1 [Example 185] |  |  | 0 to 100 | > 31.6 |
| CC(=O)Nc1cccc(CN2CCC(Nc3nc(N)c4c(C)cc(C)nc4n3)CC2)c1 [Example 480] |  |  | 100 to 3000 | 10 to 100 |
| CNc1nc(NC2C3CCC2CN(C)C3)nc2nc(C)cc(C)c12 (single isomer, unassigned) [Example 433] |  |  | 100 to 3000 | 1 to 10 |
| CNc1nc(NC2CCCN3CCCC23)nc2nc(C)cc(C)c12 (centres unmarked) [Example 598] |  | + (pC100% > 4.0 ≤ 5.0) | 100 to 3000 |  |
| Cc1cc(C)c2c(N)nc(NCCCNCC(F)F)nc2n1 [Example 193] |  |  | 100 to 3000 | 10 to 100 |
| CNc1nc(NC2(CO)CCNC2)nc2nc(C)cc(C)c12 (single isomer, unassigned) [Example 441] | ## (Fold over Ctrl > 1 ≤ 30) | ++ (pC100% > 5.0 ≤ 6.0) |  |  |
| CN1CCC(Nc2nc(N)c3c(O)ccnc3n2)CC1 [Example 244, 4-amino-2-((1-methylpiperidin-4-yl)amino)pyrido[2,3-d]pyrimidin-5-ol] |  |  | 0 to 100 | > 100 |
| Cc1cc(C)c2c(NC3CCC3)nc(NC3CCN(C)CC3)nc2n1 [Example 321] |  |  | 0 to 100 | > 31.6 |
| CNCCNc1nc(N)c2c(C)cc(C)nc2n1 [Example 285] |  |  |  | 1 to 10 |
| Cc1cc(C)c2c(N)nc(NCCN(C)c3ccccc3)nc2n1 [Example 143] |  |  | 0 to 100 | > 31.6 |
| C#Cc1cnc2nc(NC3CCN(C)CC3)nc(N)c2c1 [Example 278] |  |  | 0 to 100 | > 31.6 |
| Cc1cc(C)c2c(N)nc(NC34CNCC3C4)nc2n1 (single isomer, unassigned) [Example 259, N^2-(3-azabicyclo[3.1.0]hexan-1-yl)-5,7-dimethylpyrido[2,3-d]pyrimidine-2,4-diamine] |  | ++ (pC100% > 5.0 ≤ 6.0) | 100 to 3000 |  |
| CN1CCC(Nc2nc(N)c3ccc(-c4ccccc4Cl)nc3n2)CC1 [Example 115, 7-(2-chlorophenyl)-N^2-(1-methylpiperidin-4-yl) pyrido[2,3-d]pyrimidine-2,4-diamine] |  |  | 100 to 3000 | 1 to 10 |
| CNc1nc(NC2CCN3CCCC23)nc2nc(C)cc(C)c12 (centres unmarked) [Example 439] |  |  | 0 to 100 | > 31.6 |
| Cc1cc(C)c2c(NCCN)nc(NC3CCN(C)CC3)nc2n1 [Example 315] |  |  | 0 to 100 | > 31.6 |
| Cc1cc(C)c2c(NCCn3ccnc3)nc(NC3CCN(C)CC3)nc2n1 [Example 316] |  |  | 0 to 100 | > 31.6 |
| CNc1cc(NC2CCN(C)CC2)nc2nc(C)cc(C)c12 [Example 261, N^4,5,7-trimethyl-N^2-(1-methylpiperidin-4-yl)-1,8-naphthyridine-2,4-diamine] |  |  | 100 to 3000 | 1 to 10 |
| CNc1nc(N[C@H]2CN(C)C[C@H]2OC)nc2nc(C)cc(C)c12 [Example 369] |  |  | 100 to 3000 | 1 to 10 |
